The test system of data set [1] is PC-3. Kind of data set: Antiproliferative activity against human PC3 cells after 48 hrs by MTS assay. The following applies: PC-3, 48 h. Format: functional, cell-based. (In general: Tetrazolium dyes change colour on reduction, which living cells bring about.)
Data set [2] in a line: Aqueous solubility of the compound in water by HPLC-UV spectrophotometric analysis. Format: physicochemical.
The subject of data set [3] is PC-3. The experiment in a line: Growth inhibition of human PC3 cells at 10 uM after 48 hrs by MTS assay. Format: functional. Conditions: PC-3, 48 h, read-out: GI.
The subject of data set [4] is MCF7. Kind of data set: Antiproliferative activity against human MCF7 cells after 48 hrs by MTS assay. It is filed as functional, cell-based. Conditions: MCF7, 48 h.
For data set [5], the system named is A-375. The experiment in a line: Antiproliferative activity against human A375 cells after 48 hrs by MTS assay. Format: functional, cell-based. The following applies: A-375, 48 h.
The test system of data set [6] is A549. Kind of data set: Antiproliferative activity against human A549 cells after 48 hrs by MTS assay. The following applies: A549, 48 h. It is filed as functional, cell-based.
Data set [7] relates to SW480. The experiment in a line: Antiproliferative activity against human SW480 cells after 48 hrs by MTS assay. The following applies: SW480, 48 h. It is filed as functional, cell-based.
Data set [8] concerns HCT-116. The experiment in a line: Antiproliferative activity against human HCT116 cells after 48 hrs by MTS assay. Format: functional, cell-based. Conditions: HCT-116, 48 h.
Data set [9] is described as follows: Selectivity index, ratio of IC50 for human HELF to IC50 for human PC3 cells. It is filed as toxicity. Conditions: HELF cells and PC3 cells, read-out: Ratio IC50.
Data set [10] can be described thus: Antiproliferative activity against human HELF after 48 hrs by MTS assay.
Data set [11] relates to BGC-823. Kind of data set: Growth inhibition of human BGC823 cells at 10 uM. Format: functional. Conditions: read-out: GI.
Data set [12] concerns A549. The experiment in a line: Growth inhibition of human A549 cells at 10 uM after 48 hrs by MTS assay. The following applies: A549, 48 h, read-out: GI. Format: functional.

Regarding `C=CCSC1=CC(=O)C(NCCP(=O)(OCC)OCC)=CC1=O`, in [1], the IC50 (as a rule, the concentration that gives 50% inhibition) is 701 nM. The same measure, in the same setting: the result for `C=CCSC1=CC(=O)C(NCCO)=CC1=O` reads 720 nM. On to `C=CCSC1=CC(=O)C(NCCCNC)=CC1=O.Cl`, for which the solubility – broadly, how much of the substance goes into solution per volume – in data set [2] was over 200 mg/mL. In data set [1], this molecule came in with an IC50 of 314 nM. Regarding `C=CCSC1=CC(=O)C(NCCCN2CCOCC2)=CC1=O`, the IC50 in data set [1] came out at 1460 nM. On the same count and under the same terms, as for `C=CCSC1=CC(=O)C(N[C@H]2CC[C@@H](N)CC2)=CC1=O`, the figure is 483 nM. Still for that read-out and setting: the result for `C=CCSC1=CC(=O)C(NCCC(=O)OC)=CC1=O` reads 4670 nM; that for `C=CCSC1=CC(=O)C(NCC(O)CO)=CC1=O` (stereo not drawn), 3980 nM. On to `C=CCSC1=CC(=O)C(NCCCNCCO)=CC1=O`, for which, in [1], inhibition was half-maximal at 2170 nM (IC50).

Molecule `C=CCSC1=CC(=O)C(NCCCl)=CC1=O` yielded an IC50 in data set [1] of 602 nM.

In data set [1], `C=CCSC1=CC(=O)C(NCCCN)=CC1=O` had an IC50 of 1570 nM.

In the case of `C=CCSC1=CC(=O)C(NCCOCCO)=CC1=O`, the IC50 in data set [1] was found to be 394 nM. In the case of `CC(O)CNC1=CC(=O)C(SC2C=CCCC2)=CC1=O` (stereo not drawn), the inhibition of growth at 10 µM in data set [3] is 46.9%. `CC(O)CNC1=CC(=O)C(SC/C=C/c2ccccc2)=CC1=O` (stereo not drawn): in data set [3], the inhibition of growth at 10 µM was 3.75%. For the molecule `C=CCSC1=CC(=O)C(NCCCN(C)C)=CC1=O.Cl`, the solubility in [2] was over 200 mg/mL. For the same molecule, in data set [1], the IC50 worked out at 910 nM. Take `C=CCSC1=CC(=O)C(NCCNC(C)=O)=CC1=O`: in data set [1], the IC50 came to 2770 nM. For `CC(O)CNC1=CC(=O)C(SC/C=C/c2cccnc2)=CC1=O` (stereo not drawn), the inhibition of growth at 10 µM in data set [3] was 9.45%.

With `C=C(CSC1=CC(=O)C(NCC(C)O)=CC1=O)c1ccccc1` (stereo not drawn), the inhibition of growth at 10 µM in data set [3] worked out at 11.8%. As to `C=CCSC1=CC(=O)C(N[C@H]2CC[C@H](N)CC2)=CC1=O.Cl`, the IC50 in [4] came to 259 nM; in data set [5], 220 nM; in data set [6] it was 376 nM; in data set [7], 1220 nM; in data set [8], 408 nM; in data set [1], 224 nM. This molecule returned an IC50 in data set [10] of 10500 nM. In data set [2], this molecule came in with a solubility of 23.2 mg/mL. In addition, the selectivity ratio in [9] is 47.

Take `C=CCSC1=CC(=O)C(NCCS(C)(=O)=O)=CC1=O`: in [1], half-maximal inhibition (IC50) was put at 1540 nM. For the molecule `C=CCSC1=CC(=O)C(N[C@H]2CC[C@H](O)CC2)=CC1=O`, the solubility in data set [2] is under 1 mg/mL. This molecule gave an IC50 in data set [1] of 330 nM. Turning to `C/C=C/CSC1=CC(=O)C(NCC(C)O)=CC1=O` (stereo not drawn), in [3], the inhibition of growth at 10 µM was found to be 67.6%. `C=CCSC1=CC(=O)C(NCCCCO)=CC1=O` returned an IC50 in data set [1] of 461 nM. In turn, `C=CCSC1=CC(=O)C(NCCN2CCNC2=O)=CC1=O` yielded an IC50 in [1] of 2190 nM. Take `C=CCSC1=CC(=O)C(NCC(C)O)=CC1=O` (stereo not drawn): the inhibition of growth at 10 µM was found to be 88.5% in data set [11], 88% in data set [3] and 85.5% in [12]. This molecule yielded an IC50 in [1] of 5000 nM. `C=C(C)CSC1=CC(=O)C(NCC(C)O)=CC1=O` (stereo not drawn): in data set [3], the inhibition of growth at 10 µM came to 61.9%. For `C=C(Cl)CSC1=CC(=O)C(NCC(C)O)=CC1=O` (stereo not drawn), the inhibition of growth at 10 µM in data set [3] was 20%. Take `COc1ccccc1/C=C/CSC1=CC(=O)C(NCC(C)O)=CC1=O` (stereo not drawn): the inhibition of growth at 10 µM in [3] stood at 5.9%.

For the molecule `CC(O)CNC1=CC(=O)C(SC/C=C/c2ccc(F)cc2)=CC1=O` (stereo not drawn), in [3], the inhibition of growth at 10 µM stood at 12.2%. With `C=CCSC1=CC(=O)C(NCCCO)=CC1=O`, in [1], the IC50 worked out at 678 nM. That is a sub-micromolar value.

For the origin of these results see ChEMBL document CHEMBL4196043, “Discovery and optimization of 2-thio-5-amino substituted benzoquinones as potent anticancer agents” (Eur J Med Chem, 2018).
